Assay results as given in ChEMBL document CHEMBL4507273 (2021).

Legend:
[1] = target: Phosphatidylinositol 4,5-bisphosphate 3-kinase catalytic subunit alpha isoform (Homo sapiens) (UniProt P42336); settings: Compound concentration 1000.0 nM
[2] = target: Proto-oncogene tyrosine-protein kinase Src (Homo sapiens) (UniProt P12931); settings: Compound concentration 1000.0 nM
[3] = target: Fibroblast growth factor receptor 2 (Homo sapiens) (UniProt P21802); settings: Compound concentration 1000.0 nM
Sequence of Fibroblast growth factor receptor 2 (Homo sapiens) (P21802 22-821 limits assumed): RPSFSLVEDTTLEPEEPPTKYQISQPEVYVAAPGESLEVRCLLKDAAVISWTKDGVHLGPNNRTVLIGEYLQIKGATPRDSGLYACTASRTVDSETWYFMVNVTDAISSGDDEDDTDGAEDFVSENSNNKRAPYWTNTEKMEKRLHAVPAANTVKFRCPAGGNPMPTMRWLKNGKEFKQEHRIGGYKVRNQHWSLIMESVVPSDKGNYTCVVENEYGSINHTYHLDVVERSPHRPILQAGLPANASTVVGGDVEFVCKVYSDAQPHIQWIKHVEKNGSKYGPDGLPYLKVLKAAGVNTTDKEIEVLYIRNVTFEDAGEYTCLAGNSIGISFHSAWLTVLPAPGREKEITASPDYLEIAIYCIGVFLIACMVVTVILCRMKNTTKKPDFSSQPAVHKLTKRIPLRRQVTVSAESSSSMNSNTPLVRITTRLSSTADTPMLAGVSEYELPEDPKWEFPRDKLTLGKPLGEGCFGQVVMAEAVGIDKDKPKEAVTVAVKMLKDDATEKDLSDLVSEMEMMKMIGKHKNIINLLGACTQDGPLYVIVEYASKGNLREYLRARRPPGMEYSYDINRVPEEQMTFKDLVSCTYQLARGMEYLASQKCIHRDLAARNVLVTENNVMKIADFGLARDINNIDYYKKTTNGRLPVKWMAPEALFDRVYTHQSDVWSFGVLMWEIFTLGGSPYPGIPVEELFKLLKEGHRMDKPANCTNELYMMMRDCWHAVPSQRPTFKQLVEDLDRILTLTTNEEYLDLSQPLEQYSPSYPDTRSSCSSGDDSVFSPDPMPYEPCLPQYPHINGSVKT

[4] = target: Mu-type opioid receptor (Homo sapiens, UniProt P35372); settings: Compound concentration 10.0 uM
[5] = target: Dual specificity mitogen-activated protein kinase kinase 7 (Homo sapiens) (UniProt O14733); settings: Compound concentration 1000.0 nM
[6] = target: Mitogen-activated protein kinase kinase kinase 1 (Homo sapiens) (UniProt Q13233); settings: Compound concentration 1000.0 nM
[7] = target: Histamine H2 receptor (Homo sapiens, UniProt P25021); assay: GPCRScan assay: inhibition of H2; set-up: radioligand conc. used [nm] 0.02 – 0.05, parental cells Stable HEK
Sequence of Histamine H2 receptor (P25021 whole entry, canonical isoform): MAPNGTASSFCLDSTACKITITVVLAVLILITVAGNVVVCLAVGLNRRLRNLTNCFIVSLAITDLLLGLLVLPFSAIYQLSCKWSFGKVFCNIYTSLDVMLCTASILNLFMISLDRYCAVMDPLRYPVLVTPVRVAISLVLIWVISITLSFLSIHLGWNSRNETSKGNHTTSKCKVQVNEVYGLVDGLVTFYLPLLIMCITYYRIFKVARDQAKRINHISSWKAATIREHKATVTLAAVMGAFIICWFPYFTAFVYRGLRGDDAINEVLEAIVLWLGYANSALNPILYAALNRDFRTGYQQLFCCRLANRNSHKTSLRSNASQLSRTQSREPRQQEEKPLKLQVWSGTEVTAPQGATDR

[8] = test system: Phosphatidylinositol 4,5-bisphosphate 3-kinase catalytic subunit alpha isoform (Homo sapiens), P42336 [E542K]; settings: Compound concentration 1000.0 nM
[9] = target: Alpha-1B adrenergic receptor (Homo sapiens) (UniProt P35368); settings: Compound concentration 10.0 uM
[10] = target: Casein kinase II subunit alpha' (Homo sapiens) (UniProt P19784); settings: Compound concentration 1000.0 nM
Sequence of Casein kinase II subunit alpha' (Homo sapiens) (P19784 whole entry, looked up): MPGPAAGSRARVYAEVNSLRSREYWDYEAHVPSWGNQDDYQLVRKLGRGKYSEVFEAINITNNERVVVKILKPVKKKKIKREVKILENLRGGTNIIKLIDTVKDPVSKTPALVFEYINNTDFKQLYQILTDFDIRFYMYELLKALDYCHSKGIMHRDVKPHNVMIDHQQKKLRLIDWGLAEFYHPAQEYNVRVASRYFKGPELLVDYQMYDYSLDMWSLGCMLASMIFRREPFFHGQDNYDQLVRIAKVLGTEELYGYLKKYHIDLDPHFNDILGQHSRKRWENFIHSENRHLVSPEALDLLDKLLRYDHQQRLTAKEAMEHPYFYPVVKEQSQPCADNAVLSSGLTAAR

[11] = target: 5-hydroxytryptamine receptor 2B (Homo sapiens, UniProt P41595); assay: GPCRScan assay: inhibition of 5-HT2B; set-up: radioligand conc. used [nm] 1.0 – 2.0, parental cells stable HEK
[12] = target: Serine/threonine-protein kinase TBK1 (Homo sapiens) (UniProt Q9UHD2); settings: Compound concentration 1000.0 nM
Sequence of Serine/threonine-protein kinase TBK1 (Homo sapiens) (Q9UHD2 whole entry): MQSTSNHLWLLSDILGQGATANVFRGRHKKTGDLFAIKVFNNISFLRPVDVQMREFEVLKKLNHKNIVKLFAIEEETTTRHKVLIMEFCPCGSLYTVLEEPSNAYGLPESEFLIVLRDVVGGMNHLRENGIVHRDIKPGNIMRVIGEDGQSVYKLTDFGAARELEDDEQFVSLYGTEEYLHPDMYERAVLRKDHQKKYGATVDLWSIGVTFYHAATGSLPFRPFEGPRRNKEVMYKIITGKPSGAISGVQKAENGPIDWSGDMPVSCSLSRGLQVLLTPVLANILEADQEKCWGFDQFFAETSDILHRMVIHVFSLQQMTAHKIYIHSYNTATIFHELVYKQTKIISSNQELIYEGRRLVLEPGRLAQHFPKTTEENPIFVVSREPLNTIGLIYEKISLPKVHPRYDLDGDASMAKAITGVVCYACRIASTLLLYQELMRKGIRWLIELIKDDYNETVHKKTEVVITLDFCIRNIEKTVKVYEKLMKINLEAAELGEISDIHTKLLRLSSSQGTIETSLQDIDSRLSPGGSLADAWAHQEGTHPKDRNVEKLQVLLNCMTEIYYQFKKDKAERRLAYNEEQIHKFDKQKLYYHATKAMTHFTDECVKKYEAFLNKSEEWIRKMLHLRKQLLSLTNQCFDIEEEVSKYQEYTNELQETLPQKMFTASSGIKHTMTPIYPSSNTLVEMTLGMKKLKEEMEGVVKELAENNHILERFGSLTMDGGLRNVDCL

[13] = test system: Proto-oncogene tyrosine-protein kinase receptor Ret (Homo sapiens), P07949 [V804M]; settings: Compound concentration 1000.0 nM
[14] = target: Sigma intracellular receptor 2 (Homo sapiens, UniProt Q5BJF2); settings: Compound concentration 10.0 uM
[15] = target: Serine/threonine-protein kinase pim-3 (Homo sapiens) (UniProt Q86V86); settings: Compound concentration 1000.0 nM
[16] = target: Serine/threonine-protein kinase 24 (Homo sapiens) (UniProt Q9Y6E0); settings: Compound concentration 1000.0 nM
[17] = target: Mitogen-activated protein kinase kinase kinase kinase 4 (Homo sapiens) (UniProt O95819); settings: Compound concentration 1000.0 nM
[18] = target: T1, Alpha-2A adrenergic receptor (Homo sapiens) (UniProt P08913); settings: Compound concentration 10.0 uM
T1 sequence (whole entry): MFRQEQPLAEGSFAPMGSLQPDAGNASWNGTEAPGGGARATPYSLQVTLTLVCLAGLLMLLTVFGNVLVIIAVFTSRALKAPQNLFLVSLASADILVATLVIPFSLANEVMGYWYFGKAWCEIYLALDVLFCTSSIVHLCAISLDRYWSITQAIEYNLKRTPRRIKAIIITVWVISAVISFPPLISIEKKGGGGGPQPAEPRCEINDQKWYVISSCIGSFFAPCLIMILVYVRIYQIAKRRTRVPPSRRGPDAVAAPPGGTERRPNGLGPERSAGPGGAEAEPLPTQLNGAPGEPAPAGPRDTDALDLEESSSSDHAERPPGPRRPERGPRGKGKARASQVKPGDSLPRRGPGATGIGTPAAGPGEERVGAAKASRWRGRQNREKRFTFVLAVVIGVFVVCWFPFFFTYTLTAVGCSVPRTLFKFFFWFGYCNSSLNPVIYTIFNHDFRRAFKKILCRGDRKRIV

[19] = target: Mitogen-activated protein kinase 15 (Homo sapiens) (UniProt Q8TD08); settings: Compound concentration 1000.0 nM
[20] = target: 1-phosphatidylinositol 3-phosphate 5-kinase (Homo sapiens) (UniProt Q9Y2I7); settings: Compound concentration 1000.0 nM
[21] = target: Insulin receptor (Homo sapiens) (UniProt P06213); settings: Compound concentration 1000.0 nM
[22] = target: Aurora kinase C (Homo sapiens) (UniProt Q9UQB9); settings: Compound concentration 1000.0 nM
[23] = target: cAMP-dependent protein kinase catalytic subunit PRKX (Homo sapiens) (UniProt P51817); settings: Compound concentration 1000.0 nM
Sequence of cAMP-dependent protein kinase catalytic subunit PRKX (Homo sapiens) (P51817 whole entry): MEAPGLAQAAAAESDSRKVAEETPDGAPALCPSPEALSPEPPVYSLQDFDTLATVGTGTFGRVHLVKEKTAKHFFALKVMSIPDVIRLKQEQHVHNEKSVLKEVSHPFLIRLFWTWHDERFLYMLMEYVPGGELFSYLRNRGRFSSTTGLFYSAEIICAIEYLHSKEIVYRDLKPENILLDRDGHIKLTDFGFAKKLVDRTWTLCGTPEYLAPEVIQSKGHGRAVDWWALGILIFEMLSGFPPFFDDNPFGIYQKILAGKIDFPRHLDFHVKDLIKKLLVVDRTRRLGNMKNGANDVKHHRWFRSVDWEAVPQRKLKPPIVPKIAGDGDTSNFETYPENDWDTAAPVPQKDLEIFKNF

[24] = target: T2, Sodium-dependent noradrenaline transporter (Homo sapiens, UniProt P23975); settings: Compound concentration 10.0 uM
T2 sequence (P23975 whole entry): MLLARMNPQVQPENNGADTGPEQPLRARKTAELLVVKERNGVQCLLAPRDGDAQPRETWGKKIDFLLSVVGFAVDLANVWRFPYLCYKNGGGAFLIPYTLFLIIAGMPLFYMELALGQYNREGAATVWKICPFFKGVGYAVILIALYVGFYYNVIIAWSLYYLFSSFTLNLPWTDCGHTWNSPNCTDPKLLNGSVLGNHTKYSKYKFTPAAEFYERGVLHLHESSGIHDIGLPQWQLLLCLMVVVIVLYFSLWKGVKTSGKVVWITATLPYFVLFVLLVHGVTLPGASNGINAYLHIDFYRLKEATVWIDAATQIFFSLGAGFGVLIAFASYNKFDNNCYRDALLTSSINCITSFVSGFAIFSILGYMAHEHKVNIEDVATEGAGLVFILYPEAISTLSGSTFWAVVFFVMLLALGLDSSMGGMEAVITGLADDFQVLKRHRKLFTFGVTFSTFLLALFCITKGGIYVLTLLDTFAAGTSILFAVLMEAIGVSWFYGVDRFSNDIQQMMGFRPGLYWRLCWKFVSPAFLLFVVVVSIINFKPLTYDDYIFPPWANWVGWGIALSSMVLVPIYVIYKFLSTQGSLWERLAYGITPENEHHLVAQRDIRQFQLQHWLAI

[25] = target: Serine/threonine-protein kinase TAO2 (Homo sapiens) (UniProt Q9UL54); settings: Compound concentration 1000.0 nM
[26] = target: RAC-alpha serine/threonine-protein kinase (Homo sapiens) (UniProt P31749); settings: Compound concentration 1000.0 nM
Sequence of RAC-alpha serine/threonine-protein kinase (Homo sapiens) (P31749 whole entry): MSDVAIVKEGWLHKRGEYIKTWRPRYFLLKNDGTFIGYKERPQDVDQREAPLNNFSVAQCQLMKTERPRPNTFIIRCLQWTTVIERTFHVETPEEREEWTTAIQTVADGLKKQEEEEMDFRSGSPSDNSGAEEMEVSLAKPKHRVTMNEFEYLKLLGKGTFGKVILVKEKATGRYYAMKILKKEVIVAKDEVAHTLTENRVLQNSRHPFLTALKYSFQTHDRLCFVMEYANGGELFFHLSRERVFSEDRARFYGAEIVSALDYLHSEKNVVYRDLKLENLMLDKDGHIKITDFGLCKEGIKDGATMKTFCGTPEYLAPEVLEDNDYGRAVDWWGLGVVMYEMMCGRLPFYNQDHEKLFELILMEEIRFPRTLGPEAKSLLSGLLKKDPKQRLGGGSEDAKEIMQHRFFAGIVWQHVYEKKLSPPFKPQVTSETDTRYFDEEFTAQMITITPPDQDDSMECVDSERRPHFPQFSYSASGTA

[27] = target: Homeodomain-interacting protein kinase 3 (Homo sapiens) (UniProt Q9H422); settings: Compound concentration 1000.0 nM
[28] = target: Interleukin-1 receptor-associated kinase 4 (Homo sapiens) (UniProt Q9NWZ3); settings: Compound concentration 1000.0 nM
[29] = target: Homeodomain-interacting protein kinase 1 (Homo sapiens) (UniProt Q86Z02); settings: Compound concentration 1000.0 nM
[30] = target: Casein kinase I isoform epsilon (Homo sapiens) (UniProt P49674); settings: Compound concentration 1000.0 nM
[31] = target: Non-receptor tyrosine-protein kinase TYK2 (Homo sapiens) (UniProt P29597); settings: Compound concentration 1000.0 nM
[32] = test system: Epidermal growth factor receptor (Homo sapiens), P00533 [T790M]; settings: Compound concentration 1000.0 nM
[33] = target: 5-hydroxytryptamine receptor 2A (Homo sapiens, UniProt P28223); assay: GPCRScan assay: inhibition of 5-HT2A; set-up: radioligand conc. used [nm] 1.2 – 2.4, parental cells HEKT
Sequence of 5-hydroxytryptamine receptor 2A (P28223 whole entry): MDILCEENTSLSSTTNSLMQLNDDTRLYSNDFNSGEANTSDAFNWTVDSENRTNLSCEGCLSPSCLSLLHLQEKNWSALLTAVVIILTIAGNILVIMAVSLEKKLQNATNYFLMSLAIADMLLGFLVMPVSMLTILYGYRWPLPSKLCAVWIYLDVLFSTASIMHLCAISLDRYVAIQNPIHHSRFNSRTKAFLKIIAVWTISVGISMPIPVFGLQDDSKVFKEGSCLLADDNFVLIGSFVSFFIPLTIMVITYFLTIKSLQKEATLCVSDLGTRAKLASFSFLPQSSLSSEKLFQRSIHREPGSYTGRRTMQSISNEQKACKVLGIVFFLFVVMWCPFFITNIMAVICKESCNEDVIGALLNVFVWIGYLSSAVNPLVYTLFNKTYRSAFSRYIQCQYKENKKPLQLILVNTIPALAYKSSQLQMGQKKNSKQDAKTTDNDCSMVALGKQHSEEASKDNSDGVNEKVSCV

[34] = target: T2, Sodium-dependent noradrenaline transporter; assay: GPCRScan assay: inhibition of NET; set-up: radioligand conc. used [nm] 1.3 – 5.0, parental cells stable HEK
[35] = target: Tyrosine-protein kinase BTK (Homo sapiens) (UniProt Q06187); settings: Compound concentration 1000.0 nM
[36] = target: Ribosomal protein S6 kinase alpha-5 (Homo sapiens) (UniProt O75582); settings: Compound concentration 1000.0 nM
Sequence of Ribosomal protein S6 kinase alpha-5 (Homo sapiens) (O75582 whole entry, looked up): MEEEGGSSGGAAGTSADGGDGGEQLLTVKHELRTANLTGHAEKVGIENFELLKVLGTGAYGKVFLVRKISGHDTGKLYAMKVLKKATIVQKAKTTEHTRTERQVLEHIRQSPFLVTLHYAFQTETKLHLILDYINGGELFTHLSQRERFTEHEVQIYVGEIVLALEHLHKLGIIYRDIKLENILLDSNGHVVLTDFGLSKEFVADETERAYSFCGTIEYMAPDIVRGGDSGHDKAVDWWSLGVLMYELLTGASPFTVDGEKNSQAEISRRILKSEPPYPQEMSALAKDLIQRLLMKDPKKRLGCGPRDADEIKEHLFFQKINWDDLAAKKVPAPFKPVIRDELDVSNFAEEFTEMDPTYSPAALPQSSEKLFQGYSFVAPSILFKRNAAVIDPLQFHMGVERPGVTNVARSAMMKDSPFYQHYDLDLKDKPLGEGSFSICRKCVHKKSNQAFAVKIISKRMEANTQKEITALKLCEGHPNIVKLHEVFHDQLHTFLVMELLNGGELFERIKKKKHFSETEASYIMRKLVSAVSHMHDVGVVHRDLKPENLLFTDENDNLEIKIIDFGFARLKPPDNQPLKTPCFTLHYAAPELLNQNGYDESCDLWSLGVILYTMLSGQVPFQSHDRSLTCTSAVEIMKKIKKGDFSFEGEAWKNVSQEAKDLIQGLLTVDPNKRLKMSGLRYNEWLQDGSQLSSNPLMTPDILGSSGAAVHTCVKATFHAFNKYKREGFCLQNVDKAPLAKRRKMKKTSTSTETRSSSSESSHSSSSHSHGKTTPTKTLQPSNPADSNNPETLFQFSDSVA

[37] = target: Serine/threonine-protein kinase MRCK alpha (Homo sapiens) (UniProt Q5VT25); settings: Compound concentration 1000.0 nM
[38] = target: Tyrosine-protein kinase Lyn (Homo sapiens) (UniProt P07948); settings: Compound concentration 1000.0 nM
[39] = target: Calcium/calmodulin-dependent protein kinase type II subunit gamma (Homo sapiens) (UniProt Q13555); settings: Compound concentration 1000.0 nM

SMILES: CNCc1ccccc1-c1csc([C@@H](C)Nc2nc(C)nc3cc(OC)c(OC)cc23)c1 [BAY-293]
- residual activity [1]: 69%
- residual activity [2]: 100%
- residual activity [3]: 85%
- inhibition [4]: 46.8%
- residual activity [5]: 79%
- residual activity [6]: 72%
- Ki ([7]; read-out: Ki): 140 nM
- Ki ([7]; read-out: pKi (converted)): 140 nM
- residual activity [8]: 80%
- inhibition [9]: 85.8%
- residual activity [10]: 100%
- Ki [11]: 623 nM
- residual activity [12]: 100%
- residual activity [13]: 90%
- inhibition [14]: 94.8%
- residual activity [15]: 83%
- residual activity [16]: 100%
- residual activity [17]: 100%
- inhibition [18]: 91.7%
- residual activity [19]: 100%
- residual activity [20]: 100%
- residual activity [21]: 79%
- residual activity [22]: 92%
- residual activity [23]: 67%
- inhibition [24]: 84%
- residual activity [25]: 86%
- residual activity [26]: 100%
- residual activity [27]: 83%
- residual activity [28]: 76%
- residual activity [29]: 78%
- residual activity [30]: 99%
- residual activity [31]: 71%
- residual activity [32]: 68%
- Ki ([33]; read-out: Ki): 133 nM
- Ki ([33]; read-out: pKi (converted)): 110 nM
- Ki ([34]; read-out: Ki): 982 nM
- Ki ([34]; read-out: pKi (converted)): 881 nM
- residual activity [35]: 90%
- residual activity [36]: 100%
- residual activity [37]: 67%
- residual activity [38]: 100%
- residual activity [39]: 100%

SMILES: CNCc1ccccc1-c1csc([C@H](C)Nc2nc(C)nc3cc(OC)c(OC)cc23)c1 [BAY-294]
- residual activity [1]: 71%
- residual activity [2]: 100%
- residual activity [3]: 94%
- inhibition [4]: 67.3%
- residual activity [5]: 81%
- residual activity [6]: 97%
- Ki ([7]; read-out: Ki): 21.1 nM
- residual activity [8]: 88%
- inhibition [9]: 94.7%
- residual activity [10]: 100%
- Ki [11]: 74.6 nM
- residual activity [12]: 100%
- residual activity [13]: 100%
- inhibition [14]: 83.2%
- residual activity [15]: 100%
- residual activity [16]: 100%
- residual activity [17]: 97%
- inhibition [18]: 93.5%
- residual activity [19]: 100%
- residual activity [20]: 100%
- residual activity [21]: 89%
- residual activity [22]: 94%
- residual activity [23]: 76%
- inhibition [24]: 69.3%
- residual activity [25]: 90%
- residual activity [26]: 100%
- residual activity [27]: 97%
- residual activity [28]: 89%
- residual activity [29]: 79%
- residual activity [30]: 91%
- residual activity [31]: 76%
- residual activity [32]: 76%
- Ki ([33]; read-out: Ki): 69.4 nM
- Ki ([34]; read-out: Ki): 2080 nM
- residual activity [35]: 89%
- residual activity [36]: 100%
- residual activity [37]: 92%
- residual activity [38]: 100%
- residual activity [39]: 90%
